For assay [1], the system named is Reticulocyte. Put plainly: Inhibition of HSP90 in rabbit reticulocyte lysates at 10 uM incubated for 3 hrs by denatured luciferase refolding assay. The format is subcellular. The conditions noted are these: Oryctolagus cuniculus.
Assay [2] is described as follows: Inhibition of HSP90 in rabbit reticulocyte lysates incubated for 3 hrs by denatured luciferase refolding assay. The format is subcellular, Oryctolagus cuniculus.
The test system of assay [3] is SW480. Put plainly: Antiproliferative activity against human SW480 cells assessed as reduction in cell viability incubated for 48 hrs by MTT assay. The format is functional, cell-based. The conditions noted are these: SW480, 48 h.
For assay [4], the system named is MCF7. Put plainly: Antiproliferative activity against human MCF7 cells assessed as reduction in cell viability incubated for 48 hrs by MTT assay. It is filed as functional, cell-based. The conditions noted are these: MCF7, 48 h.
Assay [5] concerns A549. Put plainly: Antiproliferative activity against human A549 cells assessed as reduction in cell viability incubated for 48 hrs by MTT assay. The conditions noted are these: A549, 48 h. It is filed as functional, cell-based. On the technique in general: Tetrazolium assays rely on reduction of a dye to a coloured formazan, in cell work by metabolically active cells.
In assay [6] the test system is HL-60. Put plainly: Antiproliferative activity against human HL-60 cells assessed as reduction in cell viability incubated for 48 hrs by MTT assay. The conditions noted are these: HL-60, 48 h. The format is functional, cell-based.
The test system of assay [7] is SMMC-7721. Put plainly: Antiproliferative activity against human SMMC-7721 cells assessed as reduction in cell viability incubated for 48 hrs by MTT assay. The format is functional, cell-based. The conditions noted are these: SMMC-7721, 48 h.

pIC50: −log10 of the molar value.

As a reminder, the inhibition is the change of the read-out against control, counted positive when it falls. High values mean a response far below the control, low ones a response near the control. Broadly, the pIC50 is the negative decadic logarithm of the IC50, by convention in mol/L.

Turning to `CC(C)=CCC[C@@]1(C)CC=C(COC(=O)CCC(=O)Nc2ccc(F)cc2)c2[nH]c(C)cc2[C@@H]1/C=C/OC(=O)C=C(C)C`, in assay [1], the inhibition was 48%.

For the molecule `CC(=O)C[C@@H]1C(=O)C(CO)=CC[C@](C)(CCC=C(C)C)[C@H]1/C=C/OC(=O)C=C(C)C`, in assay [1], the inhibition was 30%.

`CC(=O)C[C@@H]1C(=O)C(COC(C)=O)=CC[C@](C)(CCC=C(C)C)[C@H]1/C=C/OC(=O)C=C(C)C` displayed an inhibition in assay [1] of 34.9%.

In assay [1], `CC(C)=CCC[C@@]1(C)CC=C(CNc2ccc(F)cc2)c2nnc(C)cc2[C@@H]1/C=C/OC(=O)C=C(C)C` showed an inhibition of 49.3%.

Regarding `CC(C)=CCC[C@@]1(C)CC=C(COC(=O)c2ccc3cc[nH]c3c2)c2[nH]c(C)cc2[C@@H]1/C=C/OC(=O)C=C(C)C`, in assay [1], the inhibition was determined as 50.8%.

For the molecule `CC(C)=CCC[C@]1(C)/C=C/[C@@H](OC(=O)C=C(C)C)[C@](C)(O)/C=C/C(=O)/C(CN2CCN(C)CC2)=C\C1`, in assay [2], the negative-log IC50 (pIC50) is 6.01. Besides, the inhibition in assay [1] worked out at 93.6%.

On to `CC(C)=CCC[C@@]1(C)CC=C(COC(=O)c2ccc3cc[nH]c3c2)c2nnc(C)cc2[C@@H]1/C=C/OC(=O)C=C(C)C`, for which the pIC50 in assay [2] is 5.34. The molecule further returned an inhibition in assay [1] of 66.6%.

In assay [1], `CC(=O)C[C@@H]1C(=O)C(CN2CCOCC2)=CC[C@](C)(CCC=C(C)C)[C@H]1/C=C/OC(=O)C=C(C)C` returned an inhibition of 14.2%.

For the molecule `CC(C)=CCC[C@@]1(C)CC=C(CO)c2oc(C)cc2[C@@H]1/C=C/OC(=O)C=C(C)C`, in assay [1], the inhibition amounted to 82.3%.

The molecule `CC(C)=CCC[C@@]1(C)CC=C(COC(=O)c2ccc3cc[nH]c3c2)c2oc(C)cc2[C@@H]1/C=C/OC(=O)C=C(C)C` showed an inhibition in assay [1] of 42.9%.

In turn, `CC(C)=CCC[C@@]1(C)CC=C(C=O)c2[nH]c(C)c(Cl)c2[C@@H]1/C=C/OC(=O)C=C(C)C` returned an inhibition in assay [1] of 45%.

For `CC(C)=CCC[C@@]1(C)CC=C(COC(=O)CCC(=O)Nc2ccc(F)cc2)c2nnc(C)cc2[C@@H]1/C=C/OC(=O)C=C(C)C`, the inhibition in assay [1] is 54.1%.

On to `CC(=O)C[C@@H]1C(=O)C(COC(=O)C2CCCCC2)=CC[C@](C)(CCC=C(C)C)[C@H]1/C=C/OC(=O)C=C(C)C`, for which, in assay [1], the inhibition worked out at 40.3%.

On to `CC(=O)C[C@@H]1C(=O)[C@H](CO)CC[C@](C)(CCCC(C)C)[C@H]1/C=C/OC(=O)C=C(C)C`, for which the inhibition in assay [1] turned out to be 22.8%.

The molecule `CC(C)=CCC[C@@]1(C)CC=C(CN2CCOCC2)c2[nH]c(C)cc2[C@@H]1/C=C/OC(=O)C=C(C)C` returned an inhibition in assay [1] of 6.37%.

Take `CC(C)=CCC[C@@]1(C)CC=C(CO)c2[nH]c(C)cc2[C@@H]1/C=C/OC(=O)C=C(C)C`: the inhibition in assay [1] was determined as 10.6%.

On to `CC(=O)C[C@@H]1C(=O)C(CO)=CC[C@](C)(CCC2OC2(C)C)[C@H]1/C=C/OC(=O)C=C(C)C` (some centres undefined), for which the inhibition in assay [1] amounted to 36.6%.

With `CC(C)=CCC[C@@]1(C)CC=C(CNc2ccc(F)cc2)c2oc(C)cc2[C@@H]1/C=C/OC(=O)C=C(C)C`, the inhibition in assay [1] was 13.1%.

In the case of `CC(C)=CCC[C@@]1(C)CC=C(CO)C(=O)[C@H]2C[C@@](C)(O)[C@@H](C=O)[C@@H]21`, the inhibition in assay [1] was determined as 13.3%.

As for `CC(C)=CCC[C@@]1(C)CC=C(COC(=O)CCC(=O)O)c2nnc(C)cc2[C@@H]1/C=C/OC(=O)C=C(C)C`, the negative logarithm of the IC50 (pIC50) was below 4.40 in assay [3]; below 4.40 in assay [4]; below 4.40 in assay [5]; 6.57 in assay [2]; below 4.40 in assay [6]; below 4.40 in assay [7]. In assay [1], the inhibition stood at 94.6%.

As to `CC(=O)C[C@@H]1C(=O)C(CS)=CC[C@](C)(CCC=C(C)C)[C@H]1/C=C/OC(=O)C=C(C)C`, the inhibition in assay [1] came out at 0.32%.

For the molecule `CC(=O)C[C@@H]1C(=O)C(CCl)=CC[C@](C)(CCC=C(C)C)[C@H]1/C=C/OC(=O)C=C(C)C`, the inhibition in assay [1] is 53.1%.

In the case of `CC(C)=CCC[C@@]1(C)CC=C(Cn2ccnc2)c2oc(C)cc2[C@@H]1/C=C/OC(=O)C=C(C)C`, the inhibition in assay [1] was 37.1%.

Consider `CC(C)=CCC[C@@]1(C)CC=C(COC(=O)CCC(=O)O)c2[nH]c(C)cc2[C@@H]1/C=C/OC(=O)C=C(C)C`, for which, in assay [2], the pIC50 is 5.22. Besides, the inhibition in assay [1] is 71%.

As to `CC(=O)C[C@@H]1C(=O)C(CO)=CC[C@](C)(CCC(=O)C(C)C)[C@H]1/C=C/OC(=O)C=C(C)C`, the inhibition in assay [1] worked out at 0.69%.

In assay [2], `CC(C)=CCC[C@@]1(C)CC=C(CF)c2[nH]c(C)cc2[C@@H]1/C=C/OC(=O)C=C(C)C` showed a pIC50 of 5.44. The same molecule came in with an inhibition in assay [1] of 68.8%.

In assay [1], `CC(C)=CCC[C@@]1(C)CC=C(CN2CCN(C(C)C)CC2)c2nnc(C)cc2[C@@H]1/C=C/OC(=O)C=C(C)C` registered an inhibition of 20.1%.

`CC(=O)C[C@@H]1C(=O)C(COC(=O)c2cc(Cl)ccc2N)=CC[C@](C)(CCC=C(C)C)[C@H]1/C=C/OC(=O)C=C(C)C` gave a pIC50 in assay [2] of 5.39. Moreover, the inhibition in assay [1] was 61.8%.

In turn, `CC(=O)C[C@@H]1C(=O)C(COC(=O)CCC(=O)O)=CC[C@](C)(CCC=C(C)C)[C@H]1/C=C/OC(=O)C=C(C)C` showed a pIC50 in assay [2] of 5.12. Also, in assay [1], the inhibition amounted to 66.8%.

As for `CC(=O)O[C@H]1C(=O)[C@@]2(C)[C@H]([C@H](OC(=O)c3ccccc3)[C@]3(O)C[C@H](OC(=O)[C@H](O)[C@@H](NC(=O)c4ccccc4)c4ccccc4)C(C)=C1C3(C)C)[C@]1(OC(C)=O)CO[C@@H]1C[C@@H]2O` [PACLITAXEL], the pIC50 is above 8.10 in assay [3]; above 8.10 in assay [4]; above 8.10 in assay [5]; above 8.10 in assay [6]; 7.01 in assay [7].

As to `CC(=O)C[C@@H]1C(=O)C(CF)=CC[C@](C)(CCC=C(C)C)[C@H]1/C=C/OC(=O)C=C(C)C`, the pIC50 in assay [2] is 5.39. In assay [1], this molecule showed an inhibition of 84.3%.

Regarding `CC(C)=CCC[C@@]1(C)CC=C(COC(=O)CCC(=O)Nc2ccc(F)cc2)c2oc(C)cc2[C@@H]1/C=C/OC(=O)C=C(C)C`, the inhibition in assay [1] was found to be 57%.

Molecule `CC(C)=CCC[C@@]1(C)CC=C(CCl)c2oc(C)cc2[C@@H]1/C=C/OC(=O)C=C(C)C` displayed an inhibition in assay [1] of 32.6%.

With `CC(=O)C[C@@H]1C(=O)C(CN2CCN(C(C)C)CC2)=CC[C@](C)(CCC=C(C)C)[C@H]1/C=C/OC(=O)C=C(C)C`, in assay [1], the inhibition was determined as 23.8%.

In turn, `CC(=O)C[C@@H]1C(=O)C(CNc2ccc(F)cc2)=CC[C@](C)(CCC=C(C)C)[C@H]1/C=C/OC(=O)C=C(C)C` registered an inhibition in assay [1] of 64.5%.

In turn, `CC(C)=CCC[C@@]1(C)CC=C(CO)c2nnc(C)cc2[C@@H]1/C=C/OC(=O)C=C(C)C` came in with an inhibition in assay [1] of 23.6%.

Consider `CC(C)=CCC[C@@]1(C)CC=C(CF)c2nnc(C)cc2[C@@H]1/C=C/OC(=O)C=C(C)C`, for which the pIC50 is 4.74 in assay [3]; 4.75 in assay [4]; 4.69 in assay [5]; 6.43 in assay [2]; 5.46 in assay [6]; 4.80 in assay [7]. The same molecule returned an inhibition in assay [1] of 77.8%.

As to `CC(C)=CCC[C@@]1(C)CC=C(CO)[C@H]2O[C@](C)(O)C[C@H]2[C@@H]1/C=C/OC(=O)C=C(C)C`, in assay [1], the inhibition stood at 14.2%.

In assay [2], `CC(C)=CCC[C@@]1(C)CC=C(CCl)c2nnc(C)cc2[C@@H]1/C=C/OC(=O)C=C(C)C` gave a pIC50 of 5.63. The molecule also registered an inhibition in assay [1] of 85.9%.

In turn, `CC(=O)C[C@@H]1C(=O)C(COC(=O)c2ccccc2)=CC[C@](C)(CCC=C(C)C)[C@H]1/C=C/OC(=O)C=C(C)C` displayed an inhibition in assay [1] of 36.9%.
